# Where a SMILES comes first, the peptide text is derived from it. Bridges are numbered along the chain shown (N, C = ends). [ ]: non-standard residue; d: D form. The star is where a group is joined. Ileψ(thiazoline)Cys = CC[C@H](C)[C@H](N)C1=N[C@H](C(=O)*)CS1; dOrn = NCCC[C@@H](N)C(=O)O
# Experiments:
# [1] = test system: mites; assay: Control and elimination of mites in poultry flocks by bacitracin feed supplement (general finding); assay type: in vivo
# Description: This unique use is for the control and elimination of mites in poultry flocks.
# [2] = test system: mites; assay: Treatment of mite-infested chicken flock with zinc bacitracin in the feed; assay type: in vivo
# Description: The following example is offered to illustrate the manner in which the zinc bacitracin is used and the efficiency which it has realized. A flock of 10,000 Babcock chickens of an approximate age of 9-10 months, weighing approximately 3 pounds became heavily infested with mites. […] Ten months later the same flock again became mite infested.
Molecule,"toxicity to mites ([1]; applicant's discovery, no details)",elimination of mites from infested poultry flock ([1]; between 100 and 200 grams of bacitracin per ton of poultry grain for several days),"disappearance of mites from infested flock ([2]; flock of 10,000 Babcock chickens, 9-10 months old, heavily infested, 100 grams per ton in normal feed for seven days)","effect of same treatment on re-infestation ([2]; same flock again mite infested ten months later, same treatment (100 grams per ton feed, seven days))"
CC[C@H](C)[C@H](N)C1=N[C@H](C(=O)N[C@@H](CC(C)C)C(=O)N[C@H](CCC(=O)O)C(=O)N[C@H](C(=O)N[C@H]2CCCCNC(=O)[C@H](CC(N)=O)NC(=O)[C@@H](CC(=O)O)NC(=O)[C@H](Cc3cnc[nH]3)NC(=O)[C@@H](Cc3ccccc3)NC(=O)[C@H]([C@@H](C)CC)NC(=O)[C@@H](CCCN)NC2=O)[C@@H](C)CC)CS1 [bacitracin] ({Ileψ(thiazoline)Cys}-L[dE]IK[dOrn]I[dF]H[dD]N; lactam 4-C),toxic to mites,substantially eliminate mites,,
zinc bacitracin,,,substantially all of the mites had disappeared,same effective results
